From US9650339B2, “Inhibitors of histone demethylases” (Gilead Sciences, Inc., priority 2013, dated 2017)

Experiments:
KDM3B (JMJD1B) = target: T1, KDM3B (JMJD1B) (Homo sapiens, UniProt Q7LBC6); experiment: Histone lysine demethylase AlphaLISA assay, KDM3B; format: biochemical; details: read-out: KDM3B HDME Inhibition IC50
T1 construct: 842-1761; host or cells: Bac (baculovirus system)
T1 sequence (Q7LBC6 842-1761): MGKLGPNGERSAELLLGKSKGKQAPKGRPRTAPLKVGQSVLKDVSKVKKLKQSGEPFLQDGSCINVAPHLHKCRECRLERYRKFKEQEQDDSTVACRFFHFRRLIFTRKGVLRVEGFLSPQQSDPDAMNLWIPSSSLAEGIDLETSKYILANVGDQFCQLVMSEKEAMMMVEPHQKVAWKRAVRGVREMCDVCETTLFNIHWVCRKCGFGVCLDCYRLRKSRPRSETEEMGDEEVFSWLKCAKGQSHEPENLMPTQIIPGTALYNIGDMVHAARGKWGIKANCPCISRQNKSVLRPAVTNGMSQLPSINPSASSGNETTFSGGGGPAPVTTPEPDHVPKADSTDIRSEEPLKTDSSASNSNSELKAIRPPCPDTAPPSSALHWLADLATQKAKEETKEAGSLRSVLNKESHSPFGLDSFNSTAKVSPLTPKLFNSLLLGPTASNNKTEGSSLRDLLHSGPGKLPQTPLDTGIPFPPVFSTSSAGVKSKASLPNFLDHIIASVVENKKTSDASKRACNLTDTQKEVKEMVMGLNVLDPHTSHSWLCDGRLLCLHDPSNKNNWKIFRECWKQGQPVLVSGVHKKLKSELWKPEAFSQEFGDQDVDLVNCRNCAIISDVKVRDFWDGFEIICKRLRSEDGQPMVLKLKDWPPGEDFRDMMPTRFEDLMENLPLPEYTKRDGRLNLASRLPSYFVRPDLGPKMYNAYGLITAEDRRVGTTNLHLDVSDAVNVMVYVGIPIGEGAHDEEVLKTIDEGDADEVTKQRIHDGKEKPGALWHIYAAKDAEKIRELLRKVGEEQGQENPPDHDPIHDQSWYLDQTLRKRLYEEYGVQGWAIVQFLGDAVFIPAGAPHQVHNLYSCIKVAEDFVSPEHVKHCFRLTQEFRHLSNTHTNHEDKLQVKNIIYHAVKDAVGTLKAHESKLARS
Experimental: Assays are performed analogously to the protocol described by PerkinElmer (Roy et al. PerkinElmer Technical Note: AlphaLISA #12, April 2011)
Enzymes are dissolved in enzyme buffer and incubated for 10 min before being added to 3% DMSO solutions of compounds in enzyme buffer. Incubated for another 10 minutes, before substrate solution is added and the reaction mixture is incubated at room temperature. 10 μL acceptor beads, suspended in Epigenetic Buffer (Perkin Elmer AL008) from stock, are added and the suspension is incubated in the dark at room temperature, before a suspension of streptavidin donor beads (Perkin Elmer 6760002) in Epigenetic Buffer is added. After incubation at room temperature in the dark the plates are read. […]
BK9M2: Biotin-ARTKQTAR(KMe2)STGGKAPRKQ-NH2 (AnaSpec 64359) […]
Substrate Solution: Substrate, 25 μM L-Asc, and 10 μM α-KG in Buffer A.

KDM4C = target: T2, KDM4C (Homo sapiens, UniProt Q9H3R0); experiment: Histone lysine demethylase immunofluorescence assay, U2OS cells transfected with KDM4C; format: cell-based; details: U2OS cells transfected with pCMVHA KDM4C; mark detected H3K9me3; 20 hours
T2 construct: Full length; host or cells: U2OS
T2 sequence (Q9H3R0 1-1056): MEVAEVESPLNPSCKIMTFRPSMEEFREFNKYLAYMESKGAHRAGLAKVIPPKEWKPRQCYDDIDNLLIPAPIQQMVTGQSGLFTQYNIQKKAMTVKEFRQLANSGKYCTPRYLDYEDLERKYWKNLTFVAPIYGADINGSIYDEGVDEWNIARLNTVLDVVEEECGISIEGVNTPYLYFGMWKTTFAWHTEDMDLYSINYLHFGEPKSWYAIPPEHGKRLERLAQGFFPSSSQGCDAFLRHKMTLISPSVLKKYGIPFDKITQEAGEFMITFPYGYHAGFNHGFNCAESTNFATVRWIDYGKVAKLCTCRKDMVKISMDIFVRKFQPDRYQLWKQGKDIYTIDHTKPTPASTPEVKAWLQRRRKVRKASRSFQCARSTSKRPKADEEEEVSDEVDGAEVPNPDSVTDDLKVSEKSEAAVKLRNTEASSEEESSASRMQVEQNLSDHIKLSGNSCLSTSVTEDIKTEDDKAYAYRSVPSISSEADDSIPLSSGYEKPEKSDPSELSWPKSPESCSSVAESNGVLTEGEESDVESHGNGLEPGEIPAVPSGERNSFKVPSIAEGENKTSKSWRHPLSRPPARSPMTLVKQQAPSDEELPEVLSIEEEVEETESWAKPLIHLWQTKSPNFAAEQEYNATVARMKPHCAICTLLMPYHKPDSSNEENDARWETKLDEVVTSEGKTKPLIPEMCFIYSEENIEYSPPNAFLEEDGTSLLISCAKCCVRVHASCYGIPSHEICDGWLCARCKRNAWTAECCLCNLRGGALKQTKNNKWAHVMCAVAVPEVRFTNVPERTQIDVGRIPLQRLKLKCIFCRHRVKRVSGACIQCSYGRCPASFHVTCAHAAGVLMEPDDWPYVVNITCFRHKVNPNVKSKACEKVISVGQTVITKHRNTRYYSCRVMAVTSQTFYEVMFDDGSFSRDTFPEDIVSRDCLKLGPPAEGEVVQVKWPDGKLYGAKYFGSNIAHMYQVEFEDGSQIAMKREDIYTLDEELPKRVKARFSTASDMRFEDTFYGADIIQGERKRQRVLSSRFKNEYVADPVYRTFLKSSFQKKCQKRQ
Experimental: U2OS cells were seeded 24 hours before transfection. Transfection was performed with Fugene HD transfection reagent as recommended by the manufacturer. 6 hours after transfection, the cells were harvested and seeded into multi well plates into media containing compound. The media used was DMEM containing 10% FBS and pen/strep. 20 hours after incubation of cells with compounds, the cells were washed in PBS, harvested by fixation with formaldehyde 4% aqueous solution, and washed in PBS. Subsequently, the cells were permeabilized in PBS with 0.2% Triton X-100 for. Blocking was performed in PBS with 0.2% Triton X-100 and 5% FBS. The cells were incubated with primary antibodies in blocking solution over night at 4° C. The primary antibodies used in the assays were HA.11 (Covance, MMS-101P) and the antibody detecting the mark specified in the table below. After incubation with primary antibodies, the cells were washed with PBS, incubated with secondary antibodies (Alexa fluor 594 goat anti rabbit IgG, Invitrogen, A11012; Alexa flour 488 donkey anti mouse IgG, Invitrogen, A21202) and Hoechst, (Sigma, 33342) in blocking solution, and washed again with PBS. Finally, PBS was added and high throughput imaging and analysis were performed by an IN Cell Analyzer 1000 (GE Healthcare). The robot software analyzed individual cells and divided these into HA+ (transfected cells) and HA− (non-transfected cells). The IC50 values were based on an average measure of the staining of the mark specified in the table below in the transfected cells.

IC50 (KDM3B (JMJD1B)) [nM]	IC50 (KDM4C) [nM]	SMILES
> 2500		C(=N\C1CC1)/c1ccnc(CNCCCCN2CCC2)c1 [Compound 44, N-{[2-({[4-(azetidin-1-yl)butyl]amino}methyl)-pyridin-4-yl]methylidene}-cyclopropanamine]
> 2500		CCN(CC)C(=O)CNCc1cc(/C=N/CCC2CCCCC2)ccn1 [Compound 57, 2-[({4-[[(2-cyclohexylethyl)imino]-methyl]pyridin-2-yl}methyl)amino]-N,N-diethylacetamide]
> 2500		CCCCCCCC/N=C/c1ccnc(CNCC(=O)N(CC)CC)c1 [Compound 58, N,N-diethyl-2-[({4-[(octylimino)methyl]-pyridin-2-yl}methyl)amino]-acetamide]
> 2500		CCN(CC)CCCCNCc1cc(/C=N/CCOC)ccn1 [Compound 60, [4-(diethylamino)butyl]-({4-[[(2-methoxyethyl)imino]-methyl]pyridin-2-yl}methyl)amine]
	> 2500	CN(Cc1ccccc1F)C(=O)CNCc1cc(/C=N/CCO)ccn1 [Compound 92, N-[(2-fluorophenyl)methyl]-2-[({4-[[(2-hydroxyethyl)imino]-methyl]pyridin-2-yl}methyl)amino]-N-methylacetamide]
	> 2500	OCC/N=C/c1ccnc(CNCCc2ccccc2OCc2ccccc2)c1 [Compound 93, 2-[({2-[({2-[2-(benzyloxy)phenyl]-ethyl}amino)methyl]-pyridin-4-yl}methylidene)-amino]ethan-1-ol]
	> 2500	CCN(CCC#N)C(=O)CNCc1cc(/C=N/CCO)ccn1 [Compound 94, N-(2-cyanoethyl)-N-ethyl-2-[({4-[[(2-hydroxyethyl)imino]-methyl]pyridin-2-yl}methyl)amino]-acetamide]
	> 2500	CC(C)C[C@H](NCc1cc(/C=N/CCO)ccn1)C(=O)N1CCCCC1 [Compound 95, (2S)-2-[({4-[[(2-hydroxyethyl)imino]-methyl]pyridin-2-yl}methyl)amino]-4-methyl-1-(piperidin-1-yl)pentan-1-one]
	250 to 2500	CCN(CC(C)(C)N(C)C)C(=O)CNCc1cc(C=O)ccn1 [Compound 118, N-[2-(dimethylamino)-2-methylpropyl]-N-ethyl-2-{[(4-formylpyridin-2-yl)methyl]amino}-acetamide]
	> 2500	CN(CC(=O)N1CCCCC1)Cc1cc(C=O)ccn1 [Compound 120, 2-({methyl[2-oxo-2-(piperidin-1-yl)ethyl]amino}-methyl)pyridine-4-carbaldehyde]

More lines, now with the values behind:

SMILES	IC50 (KDM3B (JMJD1B)) [nM]	IC50 (KDM4C) [nM]
CCN(CC)CCCCNCc1cc(CNC(=O)C(F)(F)F)ccn1 [Compound 1, N-{[2-({[4-(diethylamino)butyl]-amino}methyl)pyridin-4-yl]methyl}-2,2,2-trifluoroacetamide]	> 2500	250 to 2500
CN(C)CCCNCc1cc(CN)ccn1 [Compound 3, [2-({[3-(dimethylamino)propyl]-amino}methyl)pyridin-4-yl]methanamine]	> 2500	> 2500
CCN(CCN(C)C)C(=O)CNCc1cc(CN)ccn1 [Compound 4, 2-({[4-(aminomethyl)pyridin-2-yl]methyl}amino)-N-[2-(dimethylamino)ethyl]-N-ethylacetamide]	> 2500	250 to 2500
CCN(CC)CCCCNCc1cc(CN)ccn1 [Compound 5, [2-({[4-(diethylamino)butyl]-amino}methyl)pyridin-4-yl]methanamine]	> 2500	250 to 2500
CCN(CC)CCCCN(Cc1cc(CNC(=O)C(F)(F)F)ccn1)C(=O)C(F)(F)F [Compound 6, N-[4-(diethylamino)butyl]-- 2,2,2-trifluoro-N-({4-[(trifluoroacetamido)-methyl]pyridin-2-yl}methyl)acetamide]	> 2500	> 2500
NCc1ccnc(CNCCCCN2CCC2)c1 [Compound 7, [2-({[4-(azetidin-1-yl)butyl]amino}methyl)-pyridin-4-yl]-methanamine]	> 2500	> 2500
CN(C)CCCCCNCc1cc(CN)ccn1 [Compound 8, [2-({[5-(dimethylamino)pentyl]-amino}methyl)pyridin-4-yl]methanamine]	> 2500	250 to 2500
COc1ccccc1CN1CCC(NC(=O)CNCc2cc(CN)ccn2)CC1 [Compound 9, 2-({[4-(aminomethyl)pyridin-2-yl]methyl}amino)-N-{1-[(2-methoxyphenyl)methyl]-piperidin-4-yl}acetamide]	> 2500	> 2500
CN(C)CCCCNCc1cc(CNC2CC2)ccn1 [Compound 10, N-{[2-({[4-(dimethylamino)butyl]-amino}methyl)pyridin-4-yl]methyl}-cyclopropanamine]	> 2500	> 2500
CC1CCCCN1CCCNCc1cc(CNC2CC2)ccn1 (centres unmarked) [Compound 11, N-{[2-({[3-(2-methylpiperidin-1-yl)propyl]amino}methyl)-pyridin-4-yl]methyl}-cyclopropanamine]	> 2500	> 2500
c1ccc(CN2CCC[C@H]2CNCc2cc(CNCC3CC3)ccn2)cc1 [Compound 16, {[(2S)-1-benzylpyrrolidin-2-yl]methyl}[(4-{[(cyclopropylmethyl)-amino]methyl}pyridin-2-yl)methyl]amine]	> 2500	
CCN(CCN(C)C)C(=O)CNCc1cc(CNC(=O)C(F)(F)F)ccn1 [Compound 25, N-[(2-{[({[2-(dimethylamino)ethyl]-(ethyl)carbamoyl}-methyl)amino]methyl}-pyrtdin-4-yl)methyl]-2,2,2-trifluoroacetamide]	> 2500	
